Assay results reported in publication PMC7862923 (Nature chemical biology, 2020).

Legend:
Format in all cases: cell-based
pMEK and pERK levels = experiment: Pathway signaling; conditions: A375 cells, 100 nM, 24 h
BRAF(V600E) = BRAF(V600E) (Homo sapiens, UniProt P15056, V600E); experiment: Immunoblot of BRAF protein levels in A375 cells; conditions: 24 h
pERK = pERK AlphaLISA in MeWo cells
BRAF(WT) = BRAF(WT) (Homo sapiens, UniProt P15056); experiment: Immunoblot of BRAF levels in HCT116 cells; conditions: KRAS(G13D), 24h
HCT116 cell line = experiment: Proliferation and pathway signaling; conditions: HCT116, KRAS(G13D)
A375 cells = experiment: RNAseq transcriptome analysis; conditions: 200nM, 20 hours

Chain of BRAF(V600E) (P15056 whole entry V600E): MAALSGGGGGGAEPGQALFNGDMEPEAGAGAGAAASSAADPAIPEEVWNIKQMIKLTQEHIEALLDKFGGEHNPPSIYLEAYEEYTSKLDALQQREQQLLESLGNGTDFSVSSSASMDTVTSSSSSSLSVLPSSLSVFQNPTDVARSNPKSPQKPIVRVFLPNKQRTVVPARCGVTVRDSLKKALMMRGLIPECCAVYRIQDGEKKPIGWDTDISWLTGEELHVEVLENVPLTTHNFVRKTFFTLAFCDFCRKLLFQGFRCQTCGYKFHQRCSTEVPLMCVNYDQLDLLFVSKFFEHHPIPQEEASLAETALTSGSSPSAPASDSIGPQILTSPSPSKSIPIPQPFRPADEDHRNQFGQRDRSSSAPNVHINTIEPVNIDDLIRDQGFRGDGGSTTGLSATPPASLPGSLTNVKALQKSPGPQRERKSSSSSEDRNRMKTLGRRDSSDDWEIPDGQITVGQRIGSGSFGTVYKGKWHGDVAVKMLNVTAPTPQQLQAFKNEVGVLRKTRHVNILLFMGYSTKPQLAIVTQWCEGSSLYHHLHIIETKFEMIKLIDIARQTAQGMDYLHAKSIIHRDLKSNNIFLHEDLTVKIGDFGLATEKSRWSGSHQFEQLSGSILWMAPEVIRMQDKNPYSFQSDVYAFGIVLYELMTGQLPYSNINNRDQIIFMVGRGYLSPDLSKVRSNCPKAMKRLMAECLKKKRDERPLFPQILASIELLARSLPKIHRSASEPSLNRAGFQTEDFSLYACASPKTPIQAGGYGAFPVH
Chain of BRAF(WT) (P15056 whole entry): as the sequence (P15056 whole entry V600E) above, with E600V counted along it

Row | effect on BRAF protein levels (degrader function) (BRAF(V600E)) | SMILES | repression of pathway signaling (pMEK and pERK levels) | reduction of BRAF(V600E) protein levels (BRAF(V600E); 100 nM) | effect on ERK activation (pERK) (pERK) | ability to reduce BRAF levels (BRAF(WT)) | inhibiting cell proliferation and pathway signaling (HCT116 cell line) | number of genes altered (differentially expressed) (A375 cells)
1 |  | CCCS(=O)(=O)Nc1ccc(F)c(-n2cc(-c3cncnc3)c3nc(N(C)C4CCN(CC)CC4)ccc32)c1F [BI 882370*] | comparable to P4B and P5B | no effect on BRAF(V600E) levels | induced paradoxical ERK activation | no ability to reduce BRAF levels | equally ineffective | 195
2 | failed to reduce BRAF protein levels | Nc1cccc2c1C(=O)N(C1CCC(=O)NC1=O)C2=O (stereo not shown) [pomalidomide] |  |  |  |  |  | 
